Laboratory results published in patent US10350204B2, “Methods for treating cognitive deficits associated with fragile X syndrome” (Wisconsin Alumni Research Foundation, priority 2015, dated 2019).

Experiments:
[1] = test system: Fmr1 KO and wildtype NPCs; experiment: Western blot analyses of p-AKT, p-MDM2, MDM2 and P53 in NPCs; format: cell-based, mouse
Method: NPCs were isolated from the dentate gyms of 8 to 10-week-old male Fmr1 KO mice and wild-type (wildtype) littermate controls based on our published methods (12, 64). Independently isolated cells serve as biological replicates. Proliferation and differentiation of NPCs was analyzed as described (11, 12, 61). We used only early passage cells (between passage 4 and 10) and only the same passage numbers of wildtype and Fmr1 KO cells. For each experiment, triplicate wells of cells were analyzed, and results were averaged as one data point (n=1). At least 3 independent biological replicates were used (n=3) for statistical analyses.
Protein samples were separated on SDS-PAGE gels (Bio-Rad), transferred to PVDF membranes (Millipore), and incubated with primary antibodies. After incubation with fluorescence-labeled secondary antibodies (Li—CoR), the membranes were imaged using Li—CoR and quantification was performed using ImageJ software. At least n=3 independent blots were used for statistical analysis.
For loading controls, membranes were probed with the mouse antibody against GAPDH.

[2] = test system: Fmr1 KO and wildtype NPCs; experiment: BrdU proliferation assay of cultured NPCs; format: cell-based, mouse
Method: We used only early passage cells (between passage 4 and 10) and only the same passage numbers of wild type (WT) and Fmr1 KO cells. For each experiment, triplicate wells of cells were analyzed, and results were averaged as one data point (n=1). At least 3 independent experiments (n=3) were performed and used for statistical analyses for each analysis. To study cell proliferation, we dissociated neural stem cells with trypsin and plated them on poly-L-ornithine and laminin-coated 24 well plate (Scientific fisher, 87721) at a density of 100,000 cells per well in proliferation medium. At 20 h post-plating, 5 μM 5-bromo-2.′-deoxyuridine (BrdU, Sigma-Aldrich) was added into the culture medium for 6 h. NPCs were then washed with PBS and fixed with 4% paraformaldehyde for 30 min at room temperature, followed by immunohistochemical analysis. To detect BrdU incorporation, fixed cells were pretreated with 1M HCl for 30 min at 37° C., and then washed with borate buffer, pH 8.5, for 30 min. We then followed our standard immunohistochemistry protocol^10. BrdU incorporation assay was determined using an Operetta high content imaging system (PerkinElmer, Inc) and Harmony quantification software (PerkinElmer, Inc). The percentage of proliferating cells was defined as the number of BrdU-labeled cells divided by total DAPI-positive cells.
For proliferation assay in vitro, 1 μM MK2206 (Selleckchem, S1078) (AKT phosphorylation inhibitor), or 2 μM Nutlin-3 (Nt3, Selleckchem, 51061) (Mdm2 inhibitor), or 1 μM RG7112 (Selleckchem, S7030) (Mdm2 inhibitor) or YH239-EE (Selleckchem 57489) (4 μM) (Mdm2 inhibitor) was added to proliferating NPCs at 6 hours post-plating. Cells were then pulse labeled 18 hours later with 5 μM 5-bromo-2′-deoxyuridine (BrdU, Sigma-Aldrich, B5002) and incubated for 6 hours in the presence of inhibitor, followed by fixation, staining, and quantification.

[3] = test system: NSCs of Fmr1 KO and wildtype mice; experiment: In vivo NSC activation in the adult dentate gyrus (GFP+GFAP+MCM2+); design: species or system mouse; details: 10 mg/kg every other day, 5 injections over 9 days
Method: (§1) All animal procedures were performed according to protocols approved by the University of Wisconsin-Madison Care and Use Committee. All mice were on C57B/L6 genetic background. The Fmr1 KO/Nestin-GFP mice (Fmr1−/y::Nestin-GFP) were created by crossing female Fmr1 heterozygous KO mice (Fmr1+/−) (59) with homozygous Nestin-GFP transgenic males (60). Generation of FMRP inducible conditional mutant mice (Fmr1loxP/y::Nestin-CreERT2::Rosa26-tdt) and tamoxifen injections to induce recombination were performed as described (12). To induce recombination, mice (6-weeks old) received Tamoxifen (Sigma-Aldrich) daily for 5 d (160 mg/kg) as described (12). Nutlin-3 (10 mg/kg) was given to 7-8 week-old mice or 20-week old mice through IP injections every other day for 5 injections and sacrificed at either 24 hours, 4 weeks, 12, or 20 weeks after the last injection. […]
The total numbers of GFP^+ or tdT^+ cells in the dentate gyms of each animal were counted on a Zeiss Apotome microscope using unbiased stereology (StereoInvestigator software, MBF Biosciences, Inc). […] Dentate gyms volume was measured using StereoInvestigator as described (11, 12). […] Briefly, at least 50 GFP^+ or BrdU^+ cells in the dentate gyms were randomly selected, and their colocalization with cell-lineage markers was determined using a Nikon A1 confocal microscope and quantified using ImageJ software (NIH).

[4] = test system: NSCs of Fmr1 KO and wildtype mice; experiment: In vivo cell fate analysis of BrdU+ cells (NeuN, S100β); design: species or system mouse; details: 10 mg/kg, 5 injections, analyzed 4 weeks after last treatment
Method: (§2) All animal procedures were performed according to protocols approved by the University of Wisconsin-Madison Care and Use Committee. All mice were on C57B/L6 genetic background. The Fmr1 KO/Nestin-GFP mice (Fmr1−/y::Nestin-GFP) were created by crossing female Fmr1 heterozygous KO mice (Fmr1+/−) (59) with homozygous Nestin-GFP transgenic males (60). Generation of FMRP inducible conditional mutant mice (Fmr1loxP/y::Nestin-CreERT2::Rosa26-tdt) and tamoxifen injections to induce recombination were performed as described (12). To induce recombination, mice (6-weeks old) received Tamoxifen (Sigma-Aldrich) daily for 5 d (160 mg/kg) as described (12). Nutlin-3 (10 mg/kg) was given to 7-8 week-old mice or 20-week old mice through IP injections every other day for 5 injections and sacrificed at either 24 hours, 4 weeks, 12, or 20 weeks after the last injection. For NSC differentiation analysis, mice also received four BrdU injections (100 mg/kg) between day 2 and 3 of Nutlin-3 injections. To induce recombination in FMRP inducible conditional mutant mice (Fmr1^loxP/y::Nestin-CreER^T2::Rosa26-tdt) mice, mice 6-weeks old male mice received Tamoxifen (Sigma-Aldrich) daily for 5 days (160 mg kg-1 i.p., 30 mg ml^−1 in 10% ethanol mixed with sunflower oil, SigmaAldrich) based on a published procedure (13). BrdU (Sigma-Aldrich, B5002) was made in a concentration of 20 mg/mL in PBS. Nutlin-3 (Nt3, Cayman Chemical, 10004372) was made in a concentration of 100 mg/mL in dimethyl sulfoxide (DMSO).
Brain tissue processing and histological analysis of mouse brains were performed as described in our publications (11, 12, 61). Briefly mice were euthanized by IP injection of sodium pentobarbital and then transcardially perfused with saline followed by 4% PFA. Brains were dissected out, post-fixed overnight in 4% PFA, and equilibrated in 30% sucrose. 40 μm brain sections were generated using a sliding microtome and stored as floating sections in cryoprotectant solution (glycerol, ethylene glycol, and 0.1M phosphate buffer, pH 7.4, 1:1:2 by volume). We performed immunohistological analysis on 1-in-6 serial floating brain sections (240 μm apart). […]
Phenotypic analysis of tdT+ cells was performed as described 3,4. Briefly, at least 50 tdT+ cells in the DG were randomly selected, and their colocalization with cell-lineage markers (e.g., double labeling with GFAP) was determined using Nikon A1 confocal microscope and quantified using Image J software (NIH). […] Briefly, at least 50 BrdU+ cells in the DG were randomly selected, and the colocalization of BrdU with cell-lineage markers (NeuN or S100β) was determined using Nikon A1 confocal microscope and quantified using Image J software (NIH). […]

[5] = Overall health and body weight of treated mice; format: in vivo, mouse; details: wildtype and Fmr1 KO mice; Nutlin-3 10 mg/kg, 5 injections
Method: as §2, with “Nutlin-3 (Nt3, Cayman Chemical, 10004372) was made in a concentration of 100 mg/mL in dimethyl sulfoxide (DMSO).” left out

[6] = Open field activity test; format: in vivo, mouse; details: wildtype and Fmr1 KO mice; Nutlin-3 10 mg/kg, 5 injections
Method: as §1, with “injection. For NSC differentiation analysis, mice also received four BrdU injections (100 mg/kg) between day 2 and 3 of Nutlin-3 injections.” for “injection.”
Mice were subjected to open field testing for evaluation of locomotor activity and general anxiety. Activity was recorded at 10-min intervals for total 30 min by means of a computer-operated tracking system (Omnitech Electronics Inc, USA) Total distance moved, and ratio of entry time into the Centre and periphery of arena were measured.

Q: With COc1ccc(C2=N[C@@H](c3ccc(Cl)cc3)[C@@H](c3ccc(Cl)cc3)N2C(=O)N2CCNC(=O)C2)c(OC(C)C)c1 [Nutlin-3] as the compound, how does the P53 expression ([1]; Fmr1 KO NPCs) read?
A: increased P53

Q: What about the “p-MDM2 (Ser166)” value ([1]; Fmr1 KO NPCs) of the same compound?
A: did not affect p-MDM2 levels

Q: What about the P53 expression ([1]; wildtype NPCs) of the same compound?
A: no significant effect on wildtype cells

Q: What about the “p-MDM2 (Ser166)” value ([1]; wildtype NPCs) of the same compound?
A: did not affect p-MDM2 levels

Q: And the “cell proliferation (BrdU+ cells)” value ([2]; Fmr1 KO NPCs, 1 μM MK2206, 2 μM Nutlin-3, 1 μM RG7112, 4 μM YH239-EE)?
A: reduced the proliferation

Q: And the “cell proliferation (BrdU+ cells)” value ([2]; wildtype NPCs, 1 μM MK2206, 2 μM Nutlin-3)?
A: without a significant effect on wildtype NPCs

Q: What about the “NSC activation (percentage of activated NSCs among total NSCs)” value ([3]; Fmr1 KO mice) of the same compound?
A: specifically reduced NSC activation in Fmr1 KO mice to wildtype levels

Q: And the “NSC activation (percentage of activated NSCs among total NSCs)” value ([3]; wildtype mice)?
A: no significant effect on wildtype mice

Q: And the “astroglial differentiation (S100β+ among BrdU+ cells)” value ([4]; Fmr1 KO mice)?
A: rescued both neuronal and astroglial differentiation

Q: What about the “neuronal differentiation (NeuN+ among BrdU+ cells)” value ([4]; Fmr1 KO mice) of the same compound?
A: rescued both neuronal and astroglial differentiation

Q: And the “astroglial differentiation (S100β+ among BrdU+ cells)” value ([4]; wildtype mice)?
A: without any significant effect on wildtype mice

Q: And the “neuronal differentiation (NeuN+ among BrdU+ cells)” value ([4]; wildtype mice)?
A: without any significant effect on wildtype mice

Q: What about the “overall health and body weight” value [5] of the same compound?
A: no significant effect on overall health and body weight

Q: And the “locomotor activity and anxiety (total distance, center/periphery entry ratio)” value [6]?
A: no significant effect
